Tested on: 217524-143-R1-J4-PDC spheroids with HUVEC/MSC, viability
Test: Anticancer human tumor 217524-143-R1-J4-PDC patient-derived pancreatic carcinoma cell line growth inhibition [CLK]
Conditions: for IC50: curve of first compound; for viability, T/C: stronger effect = lower value; active means viability on the fitted dose curve at most 10% of control; inactive means the rest
Procedure, shortened: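 Multi-cell-type spheroids combined patient-derived tumor cells with HUVEC endothelial cells and human mesenchymal stem cells. Paired agents were dosed in half-log steps down from about clinical Cmax, or from 10 microM where Cmax was unknown.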
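Further: spheroids exposed to agents for seven days before reading.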
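Wherever viability, T/C is given: 100% = DMSO vehicle control viability.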

COc1ccc([C@@H](O)c2cc(-c3ncnc4cc(N5CCOCC5)ccc34)c(F)cc2Cl)nn1 + CNC(=O)c1ccc(Nc2nc(OC3CCCC3)c3c(-c4ccc5nc(C)oc5c4)c[nH]c3n2)c(OC)c1
inactive: viability, T/C (second compound 0.0316 µM, first compound 0.0316 µM) 95.4% | viability, T/C (second compound 0.0316 µM, first compound 0.1 µM) 72% | viability, T/C (second compound 0.0316 µM, first compound 0.316 µM) 66% | viability, T/C (second compound 0.0316 µM, first compound 1 µM) 50.4% | viability, T/C (second compound 0.0316 µM, first compound 3.16 µM) 27.6% | viability, T/C (second compound 0.0316 µM, first compound 10 µM) 10.6% | viability, T/C (second compound 0.1 µM, first compound 0.0316 µM) 43.1% | viability, T/C (second compound 0.1 µM, first compound 0.1 µM) 34.6% | viability, T/C (second compound 0.1 µM, first compound 0.316 µM) 32% | viability, T/C (second compound 0.1 µM, first compound 1 µM) 27.9% | viability, T/C (second compound 0.1 µM, first compound 3.16 µM) 19.3% | viability, T/C (second compound 0.1 µM, first compound 10 µM) 9.43% | viability, T/C (second compound 0.316 µM, first compound 0.0316 µM) 39.8% | viability, T/C (second compound 0.316 µM, first compound 0.1 µM) 28.4% | viability, T/C (second compound 0.316 µM, first compound 0.316 µM) 27.4% | viability, T/C (second compound 0.316 µM, first compound 1 µM) 20.8% | viability, T/C (second compound 0.316 µM, first compound 3.16 µM) 13.3% | viability, T/C (second compound 1 µM, first compound 0.0316 µM) 32% | viability, T/C (second compound 1 µM, first compound 0.1 µM) 22.9% | viability, T/C (second compound 1 µM, first compound 0.316 µM) 23.3% | viability, T/C (second compound 1 µM, first compound 1 µM) 13.6% | viability, T/C (second compound 1 µM, first compound 3.16 µM) 11.8% | viability, T/C (second compound 3.16 µM, first compound 0.0316 µM) 25.6% | viability, T/C (second compound 3.16 µM, first compound 0.1 µM) 27% | viability, T/C (second compound 3.16 µM, first compound 0.316 µM) 20.2% | viability, T/C (second compound 3.16 µM, first compound 1 µM) 16.9% | viability, T/C (second compound 3.16 µM, first compound 3.16 µM) 10.3% | viability, T/C (second compound 10 µM, first compound 0.0316 µM) 24.8% | viability, T/C (second compound 10 µM, first compound 0.1 µM) 23.6% | viability, T/C (second compound 10 µM, first compound 0.316 µM) 20.7% | viability, T/C (second compound 10 µM, first compound 1 µM) 13.8% | viability, T/C (second compound 10 µM, first compound 3.16 µM) 9.68%
813 nM: IC50 (second compound 0.0316 µM)
< 31.6 nM: IC50 (second compound 0.1 µM) | IC50 (second compound 0.316 µM) | IC50 (second compound 1 µM) | IC50 (second compound 3.16 µM) | IC50 (second compound 10 µM)
active: viability, T/C (second compound 0.316 µM, first compound 10 µM) 7.35% | viability, T/C (second compound 1 µM, first compound 10 µM) 5.29% | viability, T/C (second compound 3.16 µM, first compound 10 µM) 4.64% | viability, T/C (second compound 10 µM, first compound 10 µM) 5.01%

— PubChem BioAssay AID2060624 (Molecular Pharmacology Branch, DTP, NCI, 2025)
